Experimental data published in patent US9586978B2, “Anti-viral compounds” (AbbVie Inc., priority 2009, dated 2017).
Where two headings read alike, the source gives them in different places.

What was measured:
HCV genotype 6a replicon = HCV genotype 6a replicon assay; format: cell-based, Hepatitis C virus
Text: (§1) [drawing 14] employs a biphenyl linker between the imidazole moieties. See WO2008021927(BMS). The EC50 values of BMS-790052 against different HCV genotypes were shown by Nettles et al., “BMS-790052 is a First-in-class Potent Hepatitis C Virus (HCV) NS5A Inhibitor for Patients with Chronic HCV Infection: Results from a Proof-of-concept Study”, 59th Annual Meeting of the American Association for the Study of Liver Diseases (Oct. 31-Nov. 1, 2008, San Francisco, Calif.; www.natap.org/2008/AASLD/AASLD_06.htm). […] See also Gao et al., NATURE 465:96-100 (2010). The compounds in Table 1 use different linkers between the imidazole moieties. Table 1 depicts the EC50 values of these compounds when tested using respective replicon assays in the presence of 5% (v/v) fetal bovine serum (FBS).

HCV genotype 5a replicon = HCV genotype 5a replicon assay; format: cell-based, Hepatitis C virus; conditions: replicon assay in the presence of 5% (v/v) FBS
Text: as §1

HCV genotype 2b replicon = HCV genotype 2b replicon assay; format: cell-based, Hepatitis C virus
Text: as §1

HCV genotype 3a replicon = HCV genotype 3a replicon assay; format: cell-based, Hepatitis C virus
Text: as §1

HCV genotype 1b replicon = HCV genotype 1b replicon assay; format: cell-based, Hepatitis C virus
Text: as §1
(§2) Table 2 compares compounds containing unsubstituted benzimidazole to those containing halo-substituted benzimidazole. Anti-viral activities were assessed using wild-type replicons (e.g., 1b WT or 1a WT) as well as replicons containing specific NS5A mutations (e.g., 1b L28T, 1b Y93H, 1a L31V, 1a Y93C, 1a M28V, or 1a Q30E) in the absence of FBS.
(§3) Table 3 compares compounds with different linkers between the benzimidazole moieties. Anti-viral activities were determined using 1a and 1b replicon assays. “HP” refers to human plasma. […] As compared to the phenyl linker

HCV genotype 4a replicon = HCV genotype 4a replicon assay; format: cell-based, Hepatitis C virus
Text: as §1

HCV genotype 1a replicon = HCV genotype 1a replicon assay; format: cell-based, Hepatitis C virus
Text: as §1, §2, §3

HCV genotype 2a replicon = HCV genotype 2a replicon assay; format: cell-based, Hepatitis C virus
Text: as §1

HCV genotype 4a = conditions: observed by Nettles et al.; read-out: EC50 against HCV genotype 4a; cited from earlier work
different HCV genotypes = conditions: summary over genotypes, see Nettles et al.; cited from earlier work
HCV genotype 1a = conditions: observed by Nettles et al.; read-out: EC50 against HCV genotype 1a; cited from earlier work
HCV genotype 5a = conditions: observed by Nettles et al.; read-out: EC50 against HCV genotype 5a; cited from earlier work
HCV genotype 3a = conditions: observed by Nettles et al.; read-out: EC50 against HCV genotype 3a; cited from earlier work
HCV genotype 1b = conditions: observed by Nettles et al.; read-out: EC50 against HCV genotype 1b; cited from earlier work
[1] = AUC value (as defined above); format: in vivo
[2] = test system: HCV 2a, 2b, 3a and 4a replicon; test: HCV 2a, 2b, 3a and 4a replicon assays in the absence of human plasma; format: cell-based; conditions: 3a and 4a replicons, absence of HP, versus Example 4.25
Description: The inhibitory effects of the compounds of the invention on HCV replication can be determined by measuring activity of the luciferase reporter gene. For example, replicon-containing cells can be seeded into 96 well plates at a density of 5000 cells per well in 100 μl DMEM containing 5% FBS. The following day compounds can be diluted in dimethyl sulfoxide (DMSO) to generate a 200× stock in a series of eight half-log dilutions. The dilution series can then be further diluted 100-fold in the medium containing 5% FBS. Medium with the inhibitor is added to the overnight cell culture plates already containing 100 μl of DMEM with 5% FBS. In assays measuring inhibitory activity in the presence of human plasma, the medium from the overnight cell culture plates can be replaced with DMEM containing 40% human plasma and 5% FBS. The cells can be incubated for three days in the tissue culture incubators after which time 30 μl of Passive Lysis buffer (Promega) can be added to each well, and then the plates are incubated for 15 minutes with rocking to lyse the cells. Luciferin solution (100 μl, Promega) can be added to each well, and luciferase activity can be measured with a Victor II luminometer (Perkin-Elmer). The percent inhibition of HCV RNA replication can be calculated for each compound concentration and the EC50 value can be calculated using nonlinear regression curve fitting to the 4-parameter logistic equation and GraphPad Prism 4 software.

[3] = test system: HCV 1b replicon containing NS5A mutation Y93H; test: HCV 1b Y93H replicon assay; format: cell-based, Hepatitis C virus; conditions: transient transfection assays
Description: as §2

[4] = test system: HCV 1a replicon L31M, Y93H or Y93N mutant; test: HCV 1a replicon assays in the presence of 40% HP, mutants; format: cell-based; conditions: versus Example 109 of the '301 application
[5] = read-out: EC50 (nM) 6a, replicon assay in the presence of 5% (v/v) FBS
[6] = replicon assay in the presence of 5% (v/v) FBS, read-out: EC50 (nM) 2b
[7] = read-out: EC50 (nM) 3a, replicon assay in the presence of 5% (v/v) FBS
[8] = replicon assay in the presence of 5% (v/v) FBS, read-out: EC50 (nM) 1b
[9] = replicon assay in the presence of 5% (v/v) FBS, read-out: EC50 (nM) 4a
[10] = replicon assay in the presence of 5% (v/v) FBS, read-out: EC50 (nM) 1a
[11] = replicon assay in the presence of 5% (v/v) FBS, read-out: EC50 (nM) 2a

## COC(=O)N[C@H](C(=O)N1CCC[C@H]1c1ncc(C2=CCC(c3ccc(-c4cnc([C@@H]5CCCN5C(=O)[C@@H](NC(=O)OC)C(C)C)[nH]4)cc3)CC2)[nH]1)C(C)C (some centres unmarked)
HCV genotype 6a replicon; Hepatitis C virus, read-out: EC50 (nM) 6a, replicon assay in the presence of 5% (v/v) FBS
  EC50: 0.5 nM
HCV genotype 5a replicon; Hepatitis C virus
  EC50: 0.05 nM
HCV genotype 2b replicon; Hepatitis C virus, replicon assay in the presence of 5% (v/v) FBS, read-out: EC50 (nM) 2b
  EC50: 0.09 nM
HCV genotype 3a replicon; Hepatitis C virus, read-out: EC50 (nM) 3a, replicon assay in the presence of 5% (v/v) FBS
  EC50: 1.5 nM
HCV genotype 1b replicon; Hepatitis C virus, replicon assay in the presence of 5% (v/v) FBS, read-out: EC50 (nM) 1b
  EC50: 0.03 nM
HCV genotype 4a replicon; Hepatitis C virus, replicon assay in the presence of 5% (v/v) FBS, read-out: EC50 (nM) 4a
  EC50: 0.03 nM
HCV genotype 1a replicon; Hepatitis C virus, replicon assay in the presence of 5% (v/v) FBS, read-out: EC50 (nM) 1a
  EC50: 0.12 nM
HCV genotype 2a replicon; Hepatitis C virus, replicon assay in the presence of 5% (v/v) FBS, read-out: EC50 (nM) 2a
  EC50: 16 nM

## COC(=O)N[C@H](C(=O)N1CCC[C@H]1c1ncc(-c2ccc(C3CCC(c4cnc([C@@H]5CCCN5C(=O)[C@@H](NC(=O)OC)C(C)C)[nH]4)CC3)cc2)[nH]1)C(C)C (single isomer, unassigned) [drawing 17]
HCV genotype 6a replicon; [5]
  EC50: 0.5 nM
HCV genotype 5a replicon
  EC50: 0.08 nM
HCV genotype 2b replicon; [6]
  EC50: 0.4 nM
HCV genotype 3a replicon; [7]
  EC50: 2.3 nM
HCV genotype 1b replicon; [8]
  EC50: 0.06 nM
HCV genotype 4a replicon; [9]
  EC50: 0.04 nM
HCV genotype 1a replicon; [10]
  EC50: 0.71 nM
HCV genotype 2a replicon; [11]
  EC50: 9 nM

## COC(=O)N[C@H](C(=O)N1CCC[C@H]1c1ncc(-c2ccc(C3CCC(c4cnc([C@@H]5CCCN5C(=O)[C@@H](NC(=O)OC)C(C)C)[nH]4)CC3)cc2)[nH]1)C(C)C (single isomer, unassigned) [drawing 18]
HCV genotype 6a replicon; [5]
  EC50: > 10 nM
HCV genotype 5a replicon
  EC50: > 10 nM
HCV genotype 2b replicon; [6]
  EC50: > 10 nM
HCV genotype 3a replicon; [7]
  EC50: > 10 nM
HCV genotype 1b replicon; [8]
  EC50: 8.5 nM
HCV genotype 4a replicon; [9]
  EC50: 4 nM
HCV genotype 1a replicon; [10]
  EC50: > 10 nM
HCV genotype 2a replicon; [11]
  EC50: > 100 nM

## COC(=O)N[C@H](C(=O)N1CCC[C@H]1c1ncc(-c2ccc(-c3ccc(-c4cnc([C@@H]5CCCN5C(=O)[C@@H](NC(=O)OC)C(C)C)[nH]4)cc3)cc2)[nH]1)C(C)C [BMS-790052]
HCV genotype 4a
  EC50: 12 pM
Different HCV genotypes
  EC50: ≤ 200 pM
HCV genotype 1a
  EC50: 50 pM
HCV genotype 5a
  EC50: 33 pM
HCV genotype 3a
  EC50: 127 pM
HCV genotype 1b
  EC50: 9 pM

## COC(=O)N[C@H](C(=O)N1CCC[C@H]1c1nc2cc([C@H]3CC[C@H](c4ccc5[nH]c([C@@H]6CCCN6C(=O)[C@@H](NC(=O)OC)C(C)C)nc5c4)N3c3cc(F)c(N4CCC(c5ccccc5)CC4)c(F)c3)ccc2[nH]1)C(C)C [Example 5.1, methyl{(2S)-1-[(2S)-2-{5-[(2R,5R)-1-[3,5-difluoro-4-(4-phenylpiperidin-1-yl)phenyl]-5-{2-[(2S)-1-{(2S)-2-[(methoxycarbonyl)amino]-3-methylbutanoyl}pyrrolidin-2-yl]-1H-benzimidazol-5-yl}pyrrolidin-2-yl]-1H-benzimidazol-2-yl}pyrrolidin-1-yl]-3-methyl-1-oxobutan-2-yl}carbamate]
[1]; versus Example 2.9
  AUC value, fold greater than that of Example 2.9: about 30 fold
[2]
  EC50 values, fold less than those of Example 4.25: at least 50 fold
HCV genotype 2b replicon; Hepatitis C virus, absence of human plasma, Table 5, read-out: EC50 (nM, in the absence of HP) 2b
  EC50: ≤ 0.05 nM
HCV genotype 3a replicon; Hepatitis C virus, read-out: EC50 (nM, in the absence of HP) 3a, absence of human plasma, Table 5
  EC50: ≤ 0.05 nM
HCV genotype 1b replicon; Hepatitis C virus, 40% human plasma, Table 5, read-out: EC50 (nM, in the presence of 40% HP) 1b
  EC50: 0.2 nM
HCV genotype 4a replicon; Hepatitis C virus, absence of human plasma, Table 5, read-out: EC50 (nM, in the absence of HP) 4a
  EC50: ≤ 0.05 nM
HCV genotype 1a replicon; Hepatitis C virus, 40% human plasma, Table 5, read-out: EC50 (nM, in the presence of 40% HP) 1a
  EC50: 0.1 nM
[3]
  EC50 fold less than that of Example 37 of US 2010/0317568 against the 1b Y93H variant: at least 10 fold
HCV genotype 2a replicon; Hepatitis C virus, absence of human plasma, Table 5, read-out: EC50 (nM, in the absence of HP) 2a
  EC50: ≤ 0.05 nM

## COC(=O)N[C@H](C(=O)N1CCC[C@H]1c1nc2cc([C@H]3CC[C@H](c4cc5[nH]c([C@@H]6CCCN6C(=O)[C@@H](NC(=O)OC)C(C)C)nc5cc4F)N3c3ccc(C(C)(C)C)cc3)c(F)cc2[nH]1)C(C)C [Example 6.1, methyl{(2S)-1-[(2S)-2-{5-[(2R,5R)-1-(4-tert-butylphenyl)-5-{5-fluoro-2-[(2S)-1-{(2S)-2-[(methoxycarbonyl)amino]-3-methylbutanoyl}pyrrolidin-2-yl]-1H-benzimidazol-6-yl}pyrrolidin-2-yl]-6-fluoro-1H-benzimidazol-2-yl}pyrrolidin-1-yl]-3-methyl-1-oxobutan-2-yl}carbamate]
[4]
  EC50 value, fold less than that of Example 109 of the '301 application: at least 5 fold
[1]; versus Example 109 of the '301 application
  AUC value, fold greater than that of Example 109 of the '301 application: about 9 fold
